# From patent publication US8652769B2, “Methods for separating frozen-thawed spermatozoa into X-chromosome bearing and Y-chromosome bearing populations” (XY, LLC, priority 2000, dated 2014)
# Marks after values point to notes of the source that are not given here.
# Tested on: oocytes inseminated with separated stained spermatozoa from frozen-thawed sperm
# Assay: In-vitro fertilization: cleavage and development of oocytes inseminated with stained, flow-sorted frozen-thawed bull sperm
# Format: cell-based, bovine
# Description: As an example of an application of embodiments of the invention involving frozen bull sperm in IVF applications, sperm samples from two bulls were stained either at a concentration of 224 μM or 2,240 of Hoechst 33342 and the stained spermatozoa were then bulk sorted on a flow cytometer at 1000 sperm/sec into 2% egg yolk citrate. Spermatozoa were inseminated at 1×10^6/mL and embryos were cultured in the mSOF system described by Tervit H. R. et al., Successful Culture In-Vitro of Sheep and Cattle Ova, J. Reprod. Fertil., 30:493-497([…]), hereby incorporated by reference. Three replicates were carried out for bull 1 and one replicate for bull 2 (Table 1). With conventional procedures, blastocyst production with separated spermatozoa can be 70-90% of controls with spermatozoa that have not been separated.
# As can be understood, it can take much longer to stain frozen-thawed sperm so that they can be resolved during separation at the lower stain concentration than at 10×stain concentration. The differences observed in cleavage rates between the two stain concentrations most likely can be attributed to the extended incubation time at the lower stain level.
# [1] = Bull 1, 3 ejaculates, Hoechst 33342 conc. 224 μM, staining time required 190 min, 368 oocytes
# [2] = Bull 1, 3 ejaculates, Hoechst 33342 conc. 2240 μM, staining time required 60 min, 373 oocytes
# [3] = Bull 2, 1 ejaculate, Hoechst 33342 conc. 224 μM, staining time required 190 min, 86 oocytes
# [4] = Bull 2, 1 ejaculate, Hoechst 33342 conc. 2240 μM, staining time required 60 min, 81 oocytes
smiles,measurement,setting,value
CCOc1ccc(-c2nc3ccc(-c4nc5ccc(N6CCN(C)CC6)cc5[nH]4)cc3[nH]2)cc1 [Hoechst 33342],% blastocysts/oocyte,[1],17%
same,% cleave,[1],44^a %
same,% blastocysts/oocyte,[2],23%
same,% cleave,[2],60^b %
same,% blastocysts/oocyte,[3],0^a %
same,% cleave,[3],23^a %
same,% blastocysts/oocyte,[4],16^b %
same,% cleave,[4],42^b %
same,effect of increased stain concentration on cleavage or embryonic development,stain concentration up to at least 2240 μM,does not appear to have a depressive effect
